Results reported in article PMC4719211, “Comparative Pharmacokinetics of three major bioactive components in rats after oral administration of Typhae Pollen-Trogopterus Feces drug pair before and after compatibility” (DARU Journal of Pharmaceutical Sciences, 2016).

Assay: Pharmacokinetic study in rats after oral administration of Typhae Pollen / Typhae Pollen-Trogopterus Feces decoctions (plasma, UPLC-TQ/MS)
Type: in vivo, female Sprague–Dawley (SD) rats
Conditions: n = 6, noncompartment model; for Cmax / Tmax / half-life: female, Sprague-Dawley, rat, po; for AUC0~t: rat plasma
Method: An ACQUITY UPLC BEH C18 column (2.1 mm × 100 mm, 1.7 μm, Waters Corp., Milford, MA, USA) was applied and the column temperature was maintained at 35 °C. The mobile phase was composed of A (0.1 % aqueous formic acid) and B (acetonitrile) using a gradient elution of 5–10 % B at 0–1 min, 10–30 % B at 1–6 min, 30–40 % B at 6–7 min, 40–95 % B at 7–8 min, 95–5 % B at 8–9 min, […] with a flow rate set at 0.4 mL/min. The auto-sampler was conditioned at 4 °C and the injection volume was 5 μL.
Mass spectrometry detection was performed by using a Xevo Triple Quadrupole MS (Waters Corp., Milford, MA) equipped with an electrospray ionization source (ESI). The ESI source was set in positive ionization mode. The scanning mode was set multiple reaction monitoring (MRM) mode. Parameters set in the source were as follows: the capillary voltage at 1 kV; sampling cone voltage of 30 V; source temperature […]; desolvation temperature 550 °C; dwell time was automatically set by MassLynx (Waters Corp., Milford, MA, USA).
A 200 μL aliquot of plasma sample was added with 10 μL diphenhydramine hydrochloride working solution and 600 μL of methanol. After vortex for 2 min and centrifugation at 13,000 rpm for 10 min, the supernatant was transferred to another 1.5 mL tube and concentrated in the centrifuge enrichment apparatus at 37 °C.
Finally, each residue was reconstituted in 200 μL 70 % methanol, then vortexed for 3 min and centrifuged at 13,000 rpm for 10 min. 5 μL of supernatant was injected into the UPLC-TQ/MS system for analysis.
All experiments were performed on female Sprague–Dawley (SD) rats, weighing 220–250 g, obtained from Shanghai Slac Laboratory Animal Co., Ltd. (Shanghai, China). They were kept in plastic cages at 22 ± 2 °C and a relative humidity of 50–65 %, with free access to pellet food and water on a 12 h light/dark cycle. Animal welfare and experimental procedures strictly conformed to the Guide for the Care and Use of Laboratory Animals and the related ethics regulations of Nanjing University of Chinese Medicine.
For pharmacokinetic studies, the SD rats were divided into four groups randomly (n = 6 per group), and housed with unlimited access to food before the experiment while water available. Each group except the control group was oral administration of TP (CN) single drug decoction, TP-TF co-decoction (CM) and TP-TF mixed decoction (CB) at a dosage of 5 g/kg, 10 g/kg, 10 g/kg body weight, respectively. Blood samples (0.5 mL) were collected at certain time points and placed at a 1.5 mL tube before oral (0 min) and after oral (5, 15, 30, 45, 60, 120, 240, 360, 480, 720 and 1440 min) administration. Afterwards all the blood samples were centrifuged at 13,000 rpm for 10 min and stored at −80 °C until analysis.
The mean plasma concentration-time profiles of typhaneoside, vanillic acid and p-coumaric acid were determined after oral administration with different compatibility of Typhae Pollen-Trogopterus Feces drug pair in rats, the concentration-time curves are presents in Fig. 3, and the noncompartment model pharmacokinetic parameters including maximum plasma concentration (Cmax), time to reach the maximum concentrations (Tmax), half-time (T1/2), area under concentration-time curve (AUC 0~t) are summarized in Table 2.

[1] = in vivo, 5 g/kg, oral TP single drug decoction (CN)
[2] = in vivo, 10 g/kg, oral TP-TF co-decoction (CM)
[3] = in vivo, 10 g/kg, oral TP-TF mixed decoction (CB)
[4] = oral TP single drug decoction (CN), 5 g/kg
[5] = oral TP-TF co-decoction (CM), 10 g/kg
[6] = oral TP-TF mixed decoction (CB), 10 g/kg
[7] = plasma, 5 g/kg, oral TP single drug decoction (CN)
[8] = plasma, 10 g/kg, oral TP-TF co-decoction (CM)
[9] = plasma, 10 g/kg, oral TP-TF mixed decoction (CB)

Row | AUC0~t [4] [ng/h/mL] | AUC0~t [5] [ng/h/mL] | AUC0~t [6] [ng/h/mL] | Cmax [7] [ng/mL] | Tmax [7] [h] | half-life [7] [h] | Cmax [8] [ng/mL] | Tmax [8] [h] | half-life [8] [h] | Cmax [9] [ng/mL] | Tmax [9] [h] | half-life [9] [h] | SMILES | also measured
1 | 10445.53 ± 4148.68 | 14137.57 ± 4540.37 | 6193.78 ± 4499.17 | 2210 ± 1190 | 1.25 ± 0.71 | 3.69 ± 0.87 | 3870 ± 2530 | 1.47 ± 3.2 | 11.2 ± 13.6 | 1450 ± 501 | 0.17 ± 0.09 | 8.88 ± 3.76 | COc1cc(C(=O)O)ccc1O [Vanillic acid, vanillic acid] | 
2 | 36881.01 ± 25783.25 | 41512.56 ± 41763.28 | 17689.11 ± 3882.21 | 4900 ± 1890 | 1.08 ± 1.67 | 3.67 ± 1.82 | 5110 ± 3670 | 1.42 ± 1.39 | 10.1 ± 7.86 | 4190 ± 844 | 0.46 ± 0.4 | 10.1 ± 10.2 | O=C(O)/C=C/c1ccc(O)cc1 [P-coumaric acid, p-coumaric acid] | 

Row | SMILES | AUC0~t [4] [ng/h/mL] | AUC0~t [5] [ng/h/mL] | AUC0~t [6] [ng/h/mL] | Cmax [7] [ng/mL] | Tmax [7] [h] | half-life [7] [h] | Cmax [8] [ng/mL] | Tmax [8] [h] | half-life [8] [h] | Cmax [9] [ng/mL] | Tmax [9] [h] | half-life [9] [h] | also measured
3 | COc1cc(-c2oc3cc(O)cc(O)c3c(=O)c2O[C@@H]2O[C@H](CO[C@@H]3O[C@@H](C)[C@H](O)[C@@H](O)[C@H]3O)[C@@H](O)[C@H](O)[C@H]2O[C@@H]2O[C@@H](C)[C@H](O)[C@@H](O)[C@H]2O)ccc1O [Typhaneoside, typhaneoside] | 268.31 ± 167.71 | 333.46 ± 191.84 | 275.62 ± 206.06 |  |  |  |  |  |  |  |  |  | Cmax [1]: 76.4 ± 53.2 ng/mL; Tmax [1]: 2.95 ± 2.88 h; half-life [1]: 3.35 ± 2.58 h; Cmax [2]: 371 ± 316 ng/mL; Tmax [2]: 0.24 ± 0.15 h; half-life [2]: 1.91 ± 1.26 h; Cmax [3]: 214 ± 73.7 ng/mL; Tmax [3]: 0.21 ± 0.08 h; half-life [3]: 1.37 ± 0.54 h
